The text below walks through data of paper PMC12641998, “Development of Cell-Permeable Adenylosuccinate Lyase Inhibitor” (Methods and Protocols, 2025).

Data set [1] is described as follows: Permeability through an in vitro model of blood-brain barrier. Type of data set: in vitro ADME. The following applies: Figure S7, n = 3. From the text:
(1 picture or pasted object on this page, not shown here)

The next data set relates to ADSL in HeLa cells. Kind of data set: Cellular SAICAR, AICAR, S-AMP and AMP levels by HILIC-HPLC-MS. Type of data set: cell-based, human. The following applies: 12 h, triethylammonium salt form. On the procedure: Cellular experiments and the measurement of nucleotides were carried out as we previously reported. […] The media were removed, and cells were washed five times with Dulbecco’s phosphate-buffered saline. Cells were lysed in ice-cold extraction solvent (95% methanol with 10 mM triethylammonium bicarbonate). The lysates were transferred to a centrifuge tube. Debris was removed by centrifugation at 150,000× g for 10 min at 4 °C. The supernatant was passed through Amicon Ultracel centrifugal filters (molecular weight cut-off 3 kDa). The filtrates were dried in vacuum and dissolved in 0.10 mL of extraction solvent. A 10 μL portion of this solution was subjected to HILIC-MS as we previously described. To measure cell proliferation, cells were detached by trypsin-EDTA and counted using a Moxi-Z cell counter as we previously described.
Next, we asked whether 1 inhibits ADSL in mammalian cells. […] Cells were lysed, and the amounts of SAICAR and S-AMP were measured by HILIC-HPLC-MS as we previously reported (Figure 6).

The target in data set [2] is T1, recombinant human ADSL (Homo sapiens, UniProt P30566).
T1 construct: made in house
T1 sequence (P30566 1-484): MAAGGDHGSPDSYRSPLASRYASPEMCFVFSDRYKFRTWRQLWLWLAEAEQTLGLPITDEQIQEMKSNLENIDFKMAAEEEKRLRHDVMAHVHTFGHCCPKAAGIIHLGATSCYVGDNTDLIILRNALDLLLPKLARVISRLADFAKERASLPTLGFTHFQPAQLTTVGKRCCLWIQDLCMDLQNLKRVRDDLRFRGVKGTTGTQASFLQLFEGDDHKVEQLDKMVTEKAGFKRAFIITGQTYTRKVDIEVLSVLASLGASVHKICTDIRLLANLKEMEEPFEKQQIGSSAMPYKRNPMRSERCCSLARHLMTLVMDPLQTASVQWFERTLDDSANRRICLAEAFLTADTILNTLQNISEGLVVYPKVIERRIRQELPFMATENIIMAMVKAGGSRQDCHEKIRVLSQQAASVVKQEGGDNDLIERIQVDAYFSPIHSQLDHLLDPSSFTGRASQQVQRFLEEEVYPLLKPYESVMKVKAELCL
Put plainly: ADSL enzyme activity assay (A280). Type of data set: biochemical. The following applies: for effect on ADSL in subsequent tests after the screen: follow-up of screening hits. As to the method: ADSL activity assays were performed as described in the literature. In brief, 0.60 mL solution containing recombinant human ADSL (0–2 μM), the test compound, 20 mM HEPES, pH 7.9, 50 mM KCl, 1 mM MgCl2, 1 mM DTT, and 1% DMSO was placed in a semi-micro quartz cuvette. This solution was kept at 37 °C for 30 min. The reaction was initiated by the addition of S-AMP or SAICAR to a final concentration of 0–2 mM (typically 0.20 mM). A280 was monitored every 5 s for 1 h using a Beckman DU650 spectrophotometer.

Data set [3] addresses T1, recombinant human ADSL. Kind of data set: Screening of LOPAC 1280 compounds for ADSL inhibitors. Type of data set: biochemical. As to conditions: 2 µM compound, 0.2 µM ADSL, 0.2 mM S-AMP. As to the method:
In each well of UV-transparent 384-well plates, a 45 μL solution containing 0.20 μM recombinant human ADSL and 2 μM screening compounds from the LOPAC 1280 library was placed. The reaction buffer contained 20 mM HEPES, pH 7.9, 50 mM KCl, 1 mM MgCl2, 1 mM DTT, and 1% (v/v) DMSO. Following a 30 min-long incubation at ambient temperature, the reaction was initiated by the addition of S-AMP (final: 0.20 mM). The reaction was monitored by measuring A280 every 10 min for 4 h at 37 °C.
To identify ADSL inhibitors, the effects of LOPAC® 1280 library compounds on the activity of recombinant human ADSL were measured (Figure 2A). […] ADSL activity was monitored by measuring changes in A280 for 4 h at 37 °C. Compounds inhibiting ADSL activity by more than three standard deviations (Z-score < −3, Figure 2A) were counted as hits.

SMILES strings stand for the structures. Entries after “also recorded” stand apart in the source; their conditions may differ.

As to `O=C(Nc1ccccc1S(=O)(=O)O)c1cccc(C(=O)Nc2ccccc2S(=O)(=O)O)c1` [Compound 1, 2,2’-(1,3-phenylenebis(carbonylimino))bisbenzenesulfonate], in data set [1], the “permeability through blood–brain barrier in vitro” value is “limited permeability; also recorded: comparable to the low -permeability standard”. Further, in the data set on ADSL in HeLa cells, the “effect on the cellular level of S-AMP and AMP” value was “less effect”; the “increase of cellular level of SAICAR” value is reported as “approximately 2.5 fold”; the “level of AICAR, lower by” value is listed as “approximately 30%”. The EC50 (in general, the concentration that produces a half-maximal response) in the data set with ADSL in HeLa cells (Homo sapiens, read-out: EC50, increase of cellular level of SAICAR) was 400 nM.

Consider `O=C(Nc1ccccc1)c1cccc(C(=O)Nc2ccccc2)c1` [Compound 3, N, N’-diphenylisopthalamide], for which, on recombinant human ADSL [2] (concentrations tested up to 30 μM), the “inhibition of ADSL” value was “did not inhibit ADSL”.

Regarding `O=C(Nc1cc(C(=O)Nc2ccc(S(=O)(=O)O)cc2S(=O)(=O)O)cc(C(=O)Nc2ccc(S(=O)(=O)O)cc2S(=O)(=O)O)c1)Nc1cc(C(=O)Nc2ccc(S(=O)(=O)O)cc2S(=O)(=O)O)cc(C(=O)Nc2ccc(S(=O)(=O)O)cc2S(=O)(=O)O)c1` [NF-449], the “mechanism of ADSL inhibition” value on recombinant human ADSL [2] (Lineweaver-Burk plot) is listed as “competitive”. Besides, the inhibition constant (Ki) (as a rule, the dissociation constant of the complex between target and ligand, obtained from inhibition or displacement) at recombinant human ADSL [2] (Lineweaver-Burk plot, read-out: Ki, inhibition of ADSL) is 240 nM. Besides, on recombinant human ADSL [2] (S-AMP as substrate (0.2 mM), read-out: IC50, inhibition of ADSL), the half-inhibitory concentration (IC50) – broadly, the midpoint of a concentration-inhibition curve – stood at 1400 nM. Moreover, on recombinant human ADSL [3], the “screening outcome (hit: Z-score < −3)” value is on record as “might be an inhibitor of ADSL”.

On to `N=C(NO)NCCC[C@H](N)C(=O)O` [N^ω-hydroxyl-L-arginine], for which the “effect on ADSL in subsequent tests after the screen” value on recombinant human ADSL [2] is “ADSL became aggregated”. Also, at recombinant human ADSL [3], the “screening outcome (hit: Z-score < −3)” value was “potential ADSL inhibitors”.

`CCCCc1oc2ccccc2c1C(=O)c1cc(I)c(OCCN(CC)CC)c(I)c1` [amiodarone]: the “effect on ADSL in subsequent tests after the screen” value at recombinant human ADSL [2] is “did not inhibit ADSL”. Further, the “screening outcome (hit: Z-score < −3)” value at recombinant human ADSL [3] is “potential ADSL inhibitors”.
